Assay results reported in patent US20260014095A1, “PATCH […] PREPARATION METHOD AND USE THEREOF” (DEMOTECH.INC., priority 2022, published 2026).
Converted amounts (≈) assume the structure as drawn.

Tests used:
[1] = Solubility of colchicine in different types of pressure-sensitive adhesives; type: physicochemical; conditions: for State in the 4098 pressure-sensitive adhesive: 0 days; for Stability (crystallization or not) in the 4098 pressure-sensitive adhesive: room temperature for 4 months
Procedure: Colchicine with different contents was dissolved in pressure-sensitive adhesive systems with different properties.

[2] = Solubility test of colchicine in solvents; type: physicochemical; conditions: thermodynamic from solid, 25° C.
Procedure: About 2 g of the colchicine raw material was weighed and placed in a 100 ml brown volumetric flask, into which 10 ml of a solvent was added. The mixture was uniformly mixed, placed in a thermostatic oscillator with a water bath at 25° C., and observed periodically, into which the raw material was continuously added once the solution became clear. […] After the saturated solution was centrifuged in a centrifuge, the supernatant was taken and diluted to a suitable concentration, the concentration of which was then determined using the external standard method, and the solubility was calculated.

COc1cc2c(c(OC)c1OC)-c1ccc(OC)c(=O)cc1[C@@H](NC(C)=O)CC2 [colchicine, N-(5,6,7,9-tetrahydro-1,2,3,10-tetramethoxy-9-oxobenzo[α]cycloheptatrienocycloheptatrien-7-yl)-(S)-acetamide]
State in the 4098 pressure-sensitive adhesive ([1]; content higher than 5%): semitransparent | State in the 4098 pressure-sensitive adhesive ([1]; content of colchicine 5% or less): transparent | Stability (crystallization or not) in the 4098 pressure-sensitive adhesive ([1]; content 5% or less): no crystallization is found | Stability (crystallization or not) in the 4098 pressure-sensitive adhesive ([1]; content more than 5%): crystallization is precipitated | Highest solubility of colchicine in typical acrylic pressure-sensitive adhesives ([1]; without a permeation enhancer): about 5% | solubility at 24 h ([2]; 1 M triethanolamine (TEOA) in ethanol, organic solvent or mixture, 1M solution of TEOA (triethanolamine) in ethanol): 740 mg/mL (≈ 1850 mM) | solubility at 24 h ([2]; organic solvent or mixture, DGME (diethylene glycol monoethyl ether)): 350 mg/mL (≈ 876 mM) | solubility at 24 h ([2]; organic solvent or mixture, Ethanol:ethyl acetate (1:1, v/v)): 380 mg/mL (≈ 951 mM) | solubility at 24 h ([2]; organic solvent or mixture, Ethyl acetate): 0.48 mg/mL (≈ 1.2 mM) | solubility at 24 h ([2]; organic solvent or mixture, ethanol): 590 mg/mL (≈ 1480 mM) | solubility at 24 h ([2]; water): > 1000 mg/mL
